Measurements published in patent US20190175554A1, “METHOD FOR TREATING PRURITUS AND/OR ITCH” (Neurim Pharmaceuticals (1991) Ltd., priority 2016, published 2019).
Where “and” joins values, the source holds several entries; their conditions need not be identical. Equal entries are not always repeated. Where two headings read alike, the source gives them in different places.

Assays:
[1] = system: mice, formalin injected into the right hindpaw; assay: Formalin test, hindpaw licking time in mice; type: in vivo, mouse; conditions: 100 mg/kg intraperitoneally 30 min before formalin
Method: The anti-pruritus activity of pyrone-indole compounds were assessed using this model.
Method. The noxious stimulus is an injection of dilute formalin under the skin of the dorsal surface of the right hindpaw. The response is the amount of time the animals spend licking the injected paw 5-10 minutes (early phase), or 20-30 minutes (late phase) after the injection of formalin. Mice (N=8 per group) were injected intraperitoneally with test compound (100 mg/kg), or morphine (4 mg/kg), or vehicle. Thirty minutes later, formalin (20 μl 2.5% in water) was injected by the subplantar route into the right hindpaw. Hindpaw licking time was recorded in consecutive 5 minute-intervals during the first 10 minutes (early phase), and from 15 to 35 minutes (late phase) after formalin injection.

[2] = target: T1, TRPV1 (Homo sapiens, UniProt Q8NER1); assay: TRPV1 calcium influx assay; type: cell-based
[3] = target: T1, TRPV1; assay: TRPV1 calcium influx assay; type: cell-based; conditions: for inhibitory effect on TRPV1 mediated calcium influx (in words): 10 μM, significant = three or more SD from agonist mean (37.74% inhibition); for inhibition at 0.1 µM / inhibition at 0.5 µM / inhibition at 1 µM / inhibition at 5 µM / inhibition at 10 µM: read-out: Normalized % inhibition; for inhibition at 0.5 µM: Test conc 0.5 μM; for inhibition at 1 µM: Test conc 1 μM; for inhibition at 5 µM: Test conc 5 μM; for inhibition at 10 µM: Test conc 10 μM
Method: Method. The ability of N-[2-(1H-indol-3-yl)-ethyl]-comanilamide, N-[2-(5-methoxy-indol-3-yl)-ethyl]-comanilamide and 2-methyl-4-oxo-4H-pyran-3-yl [2-(5-methoxy-1H-indol-3-yl)ethyl]carbamate to act as antagonists of TRPV1 was evaluated with a calcium influx assay. The signal elicited in the presence of the positive control agonist (0.1 μM capsaicin) was set to 100% and the signal in the presence of the antagonist (0.1 μM capsaicin+3 μM ruthenium red) was set to 0.

[4] = target: T2, hNav1.7 (Homo sapiens, UniProt Q15858); assay: Block of hNav1.x channels expressed in mammalian cells, voltage protocol; type: cell-based; conditions: blocking effects on hNav1.x channels, Table 3
T2 construct: expressed in transfected cells
Method: Effects of N-[2-(1H-indol-3-yl)-ethyl]-comanilamide, N-[2-(5-methoxy-indol-3-yl)-ethyl]-comanilamide and 2-methyl-4-oxo-4H-pyran-3-yl [2-(5-methoxy-1H-indol-3-yl)ethyl]carbamate on Nav1.x Channels Expressed in Mammalian Cells
Method. A block of hNav1.x channels was measured using the stimulus voltage pattern shown in FIG. 1; voltage potentials are indicated in Table 2, below. The pulse pattern repeated twice: before and 5 minutes after N-[2-(1H-indol-3-yl)-ethyl]-comanilamide, N-[2-(5-methoxy-indol-3-yl)-ethyl]-comanilamide and 2-methyl-4-oxo-4H-pyran-3-yl[2-(5-methoxy-1H-indol-3-yl)ethyl]carbamate addition and peak current amplitudes at […] was measured (ITP1 and ITP2).

[5] = system: young male subjects, UVB-irradiated skin; assay: UVB sunburn model in humans, cold pain threshold (CPT); type: in vivo, human
Method: (§1) The anti-pruritus effect of N-[2-(1H-indol-3-yl)-ethyl]-comanilamide was tested using the UVB sunburn model (R. Rolke et al. (2006), Quantitative sensory testing in the German Research Network on neuropathic pain (DFNS): standardized protocol and reference values, Pain, 123, 231-243) used as an art-accepted surrogate model of itch (Andersen et al., Acta Derm Venereol. 2015; 95(7):771-7. Human surrogate models of histaminergic and non-histaminergic itch.).
(§2) Twenty four young male subjects ([…]N-[2-(1H-indol-3-yl)-ethyl]-comanilamide in escalated doses (300 mg-900 mg) and 6 in the placebo group), were exposed to three times the minimal erythema dose (MED) of UVB light on an approximately 4×4 cm area on the upper part of the leg in the morning of Day (−1) pre-dose on Day 1 and 2.5 hours post—dose on the UVB-irradiated area.
(§3) UVB irradiation causes skin inflammation which is noxious and elicits pronounced inflammation related temperature and mechanical hyperalgesia at the UVB-irradiated site. This hyperalgesia peaks at about 20-24 hours post irradiation after which it slowly subsides. Quantitative sensory testing (QST) assesses characteristic sensory patterns in pain and pruritus models.
(§4) The UVB irradiated skin was obtained by irradiating the marked area (approximately 4×4 cm) of the skin of the upper part of the right leg by three times the MED as determined during the screening. This was done approximately 20 hours prior to dosing.
Cold pain thresholds (CPT) were determined. The mean threshold temperature of five consecutive measurements was calculated. All thresholds were obtained with ramped stimuli (1 C/s) that were terminated when the subject pressed a button.

[6] = system: young male subjects, UVB-irradiated skin; assay: UVB sunburn model in humans, mechanical detection threshold (MDT) to von Frey hairs; type: in vivo, human; conditions: baseline Day (−1) before the sunburn; for MDT feel sensation, Post sunburn - Change from Baseline: pre-dose
Method: as §1, §2, §3, §4
Mechanical detection threshold (MDT) to von Frey hairs was assessed by using a standardized set of modified von Frey hairs (Optihair; Marstock Nervtest, Marburg, Germany) exerting forces between 0.25 and 512 mN (rounded tip, 0.5 mm in diameter). Thresholds were determined by the method of limits with the geometric mean of a series of 5 ascending and descending stimulus intensities.

[7] = read-out: Normalized % inhibition
[8] = Test conc 0.1 μM, vs 0.1 μM capsaicin

T1 sequence (Q8NER1 whole entry, species assumed): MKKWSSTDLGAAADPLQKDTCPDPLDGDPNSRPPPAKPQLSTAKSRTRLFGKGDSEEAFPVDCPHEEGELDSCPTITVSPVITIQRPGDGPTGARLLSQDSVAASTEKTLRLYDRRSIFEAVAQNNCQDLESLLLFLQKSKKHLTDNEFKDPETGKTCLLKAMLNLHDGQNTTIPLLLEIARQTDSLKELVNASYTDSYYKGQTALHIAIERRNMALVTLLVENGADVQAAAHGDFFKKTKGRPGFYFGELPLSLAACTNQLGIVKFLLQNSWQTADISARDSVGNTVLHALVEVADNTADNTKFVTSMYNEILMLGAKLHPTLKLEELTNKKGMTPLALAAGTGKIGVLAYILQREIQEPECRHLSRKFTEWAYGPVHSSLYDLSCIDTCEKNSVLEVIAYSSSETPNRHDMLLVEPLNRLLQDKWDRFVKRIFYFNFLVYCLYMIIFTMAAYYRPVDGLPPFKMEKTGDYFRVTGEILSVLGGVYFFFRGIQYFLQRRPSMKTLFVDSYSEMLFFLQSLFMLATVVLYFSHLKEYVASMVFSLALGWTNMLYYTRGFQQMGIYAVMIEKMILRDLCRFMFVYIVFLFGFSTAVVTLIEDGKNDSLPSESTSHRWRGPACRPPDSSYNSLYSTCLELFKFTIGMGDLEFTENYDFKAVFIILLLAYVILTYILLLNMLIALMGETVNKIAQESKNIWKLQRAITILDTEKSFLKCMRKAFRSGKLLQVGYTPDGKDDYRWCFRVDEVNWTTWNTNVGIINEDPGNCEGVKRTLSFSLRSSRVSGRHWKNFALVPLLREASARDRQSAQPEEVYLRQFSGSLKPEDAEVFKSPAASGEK
T2 sequence (Q15858 whole entry): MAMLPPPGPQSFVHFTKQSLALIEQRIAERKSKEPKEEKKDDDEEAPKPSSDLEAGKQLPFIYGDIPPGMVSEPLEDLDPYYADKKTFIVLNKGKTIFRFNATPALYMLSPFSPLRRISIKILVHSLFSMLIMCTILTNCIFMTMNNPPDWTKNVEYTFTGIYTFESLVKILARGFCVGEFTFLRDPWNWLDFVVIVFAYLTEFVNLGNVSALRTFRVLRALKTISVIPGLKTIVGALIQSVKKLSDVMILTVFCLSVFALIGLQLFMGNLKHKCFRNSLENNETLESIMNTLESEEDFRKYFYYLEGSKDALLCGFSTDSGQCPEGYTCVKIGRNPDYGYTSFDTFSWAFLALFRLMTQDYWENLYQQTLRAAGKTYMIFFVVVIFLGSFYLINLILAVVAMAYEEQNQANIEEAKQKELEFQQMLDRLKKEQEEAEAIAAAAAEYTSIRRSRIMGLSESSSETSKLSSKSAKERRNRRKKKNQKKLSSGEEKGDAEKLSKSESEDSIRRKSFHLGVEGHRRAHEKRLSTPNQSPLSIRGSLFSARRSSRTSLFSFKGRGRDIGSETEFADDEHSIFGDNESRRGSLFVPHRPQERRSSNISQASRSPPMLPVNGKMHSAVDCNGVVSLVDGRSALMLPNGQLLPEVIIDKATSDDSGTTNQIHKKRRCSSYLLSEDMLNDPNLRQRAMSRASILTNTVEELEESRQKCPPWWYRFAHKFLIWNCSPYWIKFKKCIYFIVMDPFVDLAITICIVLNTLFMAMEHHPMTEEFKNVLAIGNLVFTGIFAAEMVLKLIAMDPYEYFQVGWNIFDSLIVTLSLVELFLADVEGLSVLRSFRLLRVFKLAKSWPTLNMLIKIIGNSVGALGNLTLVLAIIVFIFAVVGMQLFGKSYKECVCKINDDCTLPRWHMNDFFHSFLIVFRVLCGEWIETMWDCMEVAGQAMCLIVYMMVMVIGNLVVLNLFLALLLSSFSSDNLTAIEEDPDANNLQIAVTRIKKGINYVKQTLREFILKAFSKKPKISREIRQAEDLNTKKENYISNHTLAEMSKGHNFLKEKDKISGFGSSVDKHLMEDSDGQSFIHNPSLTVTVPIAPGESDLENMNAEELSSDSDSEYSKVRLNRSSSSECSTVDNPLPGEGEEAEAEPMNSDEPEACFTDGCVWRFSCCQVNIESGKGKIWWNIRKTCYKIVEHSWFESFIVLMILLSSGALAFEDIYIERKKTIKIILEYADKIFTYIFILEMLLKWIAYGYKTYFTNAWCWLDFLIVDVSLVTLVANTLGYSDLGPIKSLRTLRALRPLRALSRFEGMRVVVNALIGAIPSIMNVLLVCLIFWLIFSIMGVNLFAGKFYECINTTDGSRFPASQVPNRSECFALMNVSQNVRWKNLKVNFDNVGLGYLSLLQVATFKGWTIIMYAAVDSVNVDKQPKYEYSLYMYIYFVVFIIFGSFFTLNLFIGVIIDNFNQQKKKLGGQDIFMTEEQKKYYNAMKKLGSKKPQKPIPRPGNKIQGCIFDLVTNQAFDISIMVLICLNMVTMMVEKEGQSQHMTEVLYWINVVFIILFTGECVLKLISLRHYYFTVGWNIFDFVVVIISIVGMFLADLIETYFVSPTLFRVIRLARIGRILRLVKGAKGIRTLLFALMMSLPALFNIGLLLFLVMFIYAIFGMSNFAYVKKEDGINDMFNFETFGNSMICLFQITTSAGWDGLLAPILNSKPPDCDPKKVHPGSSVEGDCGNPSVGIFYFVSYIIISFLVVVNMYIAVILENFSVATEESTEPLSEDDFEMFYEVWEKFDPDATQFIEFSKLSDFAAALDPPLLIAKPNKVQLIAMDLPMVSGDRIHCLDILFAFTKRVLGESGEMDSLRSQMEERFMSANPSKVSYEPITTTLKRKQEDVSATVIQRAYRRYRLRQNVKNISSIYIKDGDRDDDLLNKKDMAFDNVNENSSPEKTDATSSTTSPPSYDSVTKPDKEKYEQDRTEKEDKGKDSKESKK

| Normalized % Activation ([2]; Test conc 0.1 μM) [%] | Normalized % Activation ([2]; Test conc 0.5 μM) [%] | Normalized % Activation ([2]; Test conc 1 μM) [%] | Normalized % Activation ([2]; Test conc 5 μM) [%] | Normalized % Activation ([2]; Test conc 10 μM) [%] | inhibitory effect on TRPV1 mediated calcium influx (in words) [3] | inhibition at 0.1 µM [3, 8] [%] | inhibition at 0.5 µM ([3]; vs 0.1 μM capsaicin) [%] | inhibition at 1 µM ([3]; vs 0.1 μM capsaicin) [%] | inhibition at 5 µM ([3]; vs 0.1 μM capsaicin) [%] | inhibition at 10 µM ([3]; vs 0.1 μM capsaicin) [%] | SMILES | other results |
| --- | --- | --- | --- | --- | --- | --- | --- | --- | --- | --- | --- | --- |
| 23.07 | 11.93 | 10.51 | 8.71 | 10.13 | significant inhibitory effect | 9.88 | 2.44 | 31.1 | 26.1 | 37.7 | O=C(NCCc1c[nH]c2ccccc12)c1cc(=O)cco1 [N-[2-(1H-indol-3-yl)-ethyl]-comanilamide] | selectivity among hNav1.x channels (in words) [4]: preferential inhibition of Nav1.7 channels; inhibition of the licking response, early phase ([1]; 100 mg/kg): 57% and 38%; inhibition of the licking response, late phase ([1]; 100 mg/kg): 90% and 62%; CPT, Post sunburn ([5]; 600 mg group, after UVB, pre-dose): 16.03 °C; CPT, Pre sunburn ([5]; 600 mg group, before UVB and before dosing): 5.55 °C; CPT, 2.5 h Post Drug Administration ([5]; 600 mg, 2.5 h post dose): 12.75 °C; time of peak response post dosing ([5]; human UVB sunburn model, analgesic/anti-pruritus effects): 2.5 h; MDT feel sensation, Post sunburn - Change from Baseline ([6]; 300 mg group): −10.92 mN; MDT feel sensation, 2.5 h post Drug administration - Change from Baseline ([6]; 300 mg): −12.13 mN; MDT feel sensation, Post sunburn - Change from Baseline ([6]; 600 mg group): −3.52 mN; MDT feel sensation, 2.5 h post Drug administration - Change from Baseline ([6]; 600 mg): −0.017 mN; MDT feel sensation, Post sunburn - Change from Baseline ([6]; 900 mg group): −7.24 mN; MDT feel sensation, 2.5 h post Drug administration - Change from Baseline ([6]; 900 mg): 0.84 mN |
| 18.12 | 11.95 | 14.04 | 12.92 | 13.67 | significant inhibitory effect | 15.2 | 1.19 | 36.4 | 35.4 | 42.6 | COc1ccc2[nH]cc(CCNC(=O)c3cc(=O)cco3)c2c1 [N-[2-(5-methoxy-indol-3-yl)-ethyl]-comanilamide] | – |

| SMILES | Normalized % Activation ([2]; Test conc 0.1 μM) [%] | Normalized % Activation ([2]; Test conc 0.5 μM) [%] | Normalized % Activation ([2]; Test conc 1 μM) [%] | Normalized % Activation ([2]; Test conc 5 μM) [%] | Normalized % Activation ([2]; Test conc 10 μM) [%] | inhibitory effect on TRPV1 mediated calcium influx (in words) [3] | inhibition at 0.1 µM [3, 8] [%] | inhibition at 0.5 µM ([3]; vs 0.1 μM capsaicin) [%] | inhibition at 1 µM ([3]; vs 0.1 μM capsaicin) [%] | inhibition at 5 µM ([3]; vs 0.1 μM capsaicin) [%] | inhibition at 10 µM ([3]; vs 0.1 μM capsaicin) [%] | other results |
| --- | --- | --- | --- | --- | --- | --- | --- | --- | --- | --- | --- | --- |
| COc1ccc2[nH]cc(CCNC(=O)Oc3c(C)occc3=O)c2c1 [2-methyl-4-oxo-4H-pyran-3-yl [2-(5-methoxy-1H-indol-3-yl)ethyl]carbamate] | 12.65 | 9.58 | 12.16 | 5.75 | 12.26 | significant inhibitory effect | – | – | – | – | – | inhibition of the licking response, early phase [1]: 54%; inhibition of the licking response, late phase [1]: 86%; inhibition at 0.5 µM [2, 7]: 23.6%; inhibition at 1 µM [2, 7]: 45.1%; inhibition at 5 µM [2, 7]: 44.6%; inhibition at 10 µM [2, 7]: 41.5%; inhibition at 0.1 µM [3]: -1.78% |
